These molecules were tested on SCF or GM-CSF-stimulated UT-7 cells (assay: SCF and GM-CSF stimulated UT7 proliferation/survival assay). Conditions: Homo sapiens, UT7, 72 h, 3 days, ATP readout.
Type: cell-based
From the text: SCF and GM-CSF Stimulated UT7 Proliferation/Survival Assay:
The purpose of this assay is to test the general anti-proliferative/cytotoxic effect of small molecule compounds on SCF or GM-CSF-stimulated UT-7 cells. Preventing SCF stimulated proliferation/survival is consistent with an on-mechanism effect whereas inhibition of GM-CSF driven proliferation/survival is indicative of off-target effects. UT-7 is a factor dependent human megakaryoblastic leukemia cell line that can be grown in either IL-3, GM-CSF, EPO or SCF (these cells have been confirmed to carry wild type c-kit receptor). Cells are maintained in growth media (IMDM, 10% HI-FBS, 1×PGS, 1 ng/mL GM-CSF). To measure SCF or GM-CSF-induced proliferation, cells are washed and re-suspended to 5e4c/mL in assay media (RPMI 1640/4% HI-FBS, 1×PGS) and plated at 50 uL/well for 2500c/well. Small molecule compounds are first diluted in 100% DMSO, then diluted 1:4 in RT assay media. 5 Microliters of 11×SCF (55 ng/mL) or 11×GM-CSF (11 ng/mL) in assay media plus 1 μL of diluted drug are added to the cell plates. The treated cells are incubated in a 37° C. humidified incubator with 5% CO2 for 3 days. The amount of ATP is then measured as a surrogate marker for cell viability. This is accomplished by adding 50 μL of Perkin Elmer ATP 1 step reagent (as per instructed in the reagent manual, Cat. No. 6016739), incubating at RT for 15 min and reading the luminescence with a Perkin Elmer Topcount NXT™HTS (model c384) plate reader. The amount of SCF or GM-CSF stimulated viable cells in the presence of compound compared with in the presence of vehicle alone (HI control) is calculated using the formula: % control (POC)=(cpd−average LO)/(average HI−average LO)*100. Data (consisting of POC and inhibitor concentration in μM) is fitted to a 4-parameter equation (y=A+((B−A)/(1+((x/C)^D))), where A is the minimum y (POC) value, B is the maximum y (POC), C is the x (cpd concentration) at the point of inflection and D is the slope factor) using a Levenburg-Marquardt non-linear regression algorithm.

| SMILES | IC50 [nM] |
| --- | --- |
| O=C(Nc1cncnc1)c1c(Cl)ccc2c(Nc3ccc(C(F)(F)F)cc3)noc12 [Example 5, 6-chloro-N-(pyrimidin-5-yl)-3-(4-(trifluoromethyl)phenylamino)benzo[d]isoxazole-7-carboxamide] | ≤ 20 |
| CCCc1ccc(Nc2noc3c(C(=O)Nc4cncnc4)c(Cl)ccc23)cc1 [Example 17, 6-chloro-3-(4-propylphenylamino)-N-(pyrimidin-5-yl)benzo[d]isoxazole-7-carboxamide] | ≤ 20 |
| CCCCc1ccc(Nc2noc3c(C(=O)Nc4cncnc4)c(Cl)ccc23)cc1 [Example 18, 3-(4-butylphenylamino)-6-chloro-N-(pyrimidin-5-yl)benzo[d]isoxazole-7-carboxamide] | ≤ 20 |

These molecules were tested against T1, c-kit kinase enzyme (Homo sapiens, UniProt P10721) (assay: C-kit Homogeneous Time Resolved Fluorescent (HTRF) kinase assay). Conditions: read-out: average IC50 value, inhibition of the c-kit kinase enzyme.
T1 construct: c-kit (6.25 μM) (catalytic domain, N-terminal GST tagged, unphosphorylated); GST (N)
T1 sequence (P10721 589-937 limits assumed): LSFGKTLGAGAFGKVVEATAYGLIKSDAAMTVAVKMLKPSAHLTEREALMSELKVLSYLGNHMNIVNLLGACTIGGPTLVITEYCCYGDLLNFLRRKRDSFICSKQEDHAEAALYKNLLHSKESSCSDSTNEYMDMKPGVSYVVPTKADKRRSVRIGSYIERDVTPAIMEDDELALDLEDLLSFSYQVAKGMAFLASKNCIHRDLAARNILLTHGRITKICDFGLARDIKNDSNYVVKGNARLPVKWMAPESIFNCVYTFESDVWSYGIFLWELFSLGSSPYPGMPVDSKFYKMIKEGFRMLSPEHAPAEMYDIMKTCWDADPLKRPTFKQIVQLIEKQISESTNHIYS
Type: biochemical
Description: C-kit-Homogeneous Time Resolved Fluorescent (HTRF) Kinase Assay:
The purpose of this assay is to measure the inhibition of c-kit enzyme activity (autophosphorylation and phosphorylation of substrate) by small molecule test compounds. The c-kit HTRF assay begins with c-kit-catalyzed phosphorylation of biotinylated peptide Her-2 (N-GGMEDIYFEFMGGKKK-C) in the presence of ATP. The c-kit enzyme reaction is comprised of 1 μL of compound in 100% DMSO, 15 μL of 2× substrate mix (50 μM ATP and 2 μM biotinylated Her-2) and 15 μL of 2× c-kit (6.25 μM) (catalytic domain, N-terminal GST tagged, unphosphorylated) in 4 mM DTT all diluted in enzyme buffer (25 mM HEPES pH 7.5, 12.5 mM NaCl, 50 mM MgCl, 0.05% BSA). The reaction incubates for 90 min at RT. 160 Microliters of detection mixture containing 0.47 μg/mL steptavidin allophycocyanin and 29.7 pM europylated anti-phosphotyrosine Ab (PT66, Perkin Elmer) in HTRF buffer (100 mM Hepes pH 7.5, 100 mM NaCl, 0.1% BSA, 0.05% Tween 20) is then added to stop the reaction, by diluting out the enzyme as well as to enable quantitation of phosphorylated Her-2. After 3 h at RT, the detection reaction is read in a Packard Discovery™ (model BD1000) plate reader. The wells are excited with coherent […] light and the ratio of delayed ([…] post excitation) emissions at […] (native europium fluorescence) and 665 nm (europium fluorescence transferred to allophycocyanin—an index of substrate phosphorylation) is determined. The proportion of substrate phosphorylated in the kinase reaction in the presence of compound compared with that phosphorylated in the presence of DMSO vehicle alone (HI control) is calculated using the formula: % control (POC)=(cpd−average LO)/(average HI—average LO)*100. Data (consisting of POC and inhibitor concentration in μM) is fitted to a 4-parameter equation (y=A+((B−A)/(1+((x/C)^D))), where A is the minimum y (POC) value, B is the maximum y (POC), C is the x (compound concentration) at the point of inflection and D is the slope factor) using a Levenburg-Marquardt non-linear regression algorithm.

| IC50 [nM] | SMILES |
| --- | --- |
| ≤ 20 | O=C(Nc1cncnc1)c1c(Cl)ccc2c(Nc3ccc(F)c(C(F)(F)F)c3)noc12 [Example 10, 6-chloro-3-(4-fluoro-3-(trifluoromethyl)phenylamino)-N-(pyrimidin-5-yl)benzo[d]isoxazole-7-carboxamide] |
| ≤ 20 | O=C(Nc1cncnc1)c1c(Cl)ccc2c(Nc3cc(F)cc(C(F)(F)F)c3)noc12 [Example 12, 6-chloro-3-(3-fluoro-5-(trifluoromethyl)phenylamino)-N-(pyrimidin-5-yl)benzo[d]isoxazole-7-carboxamide] |
| ≤ 20 | O=C(Nc1cncnc1)c1c(Cl)ccc2c(Nc3ccc(OC(F)(F)F)cc3)noc12 [Example 15, 6-chloro-N-(pyrimidin-5-yl)-3-(4-(trifluoromethoxy)phenylamino)benzo[d]isoxazole-7-carboxamide] |
| ≤ 20 | CCCc1ccc(Nc2noc3c(C(=O)Nc4cncnc4)c(Cl)ccc23)cc1 [Example 17, 6-chloro-3-(4-propylphenylamino)-N-(pyrimidin-5-yl)benzo[d]isoxazole-7-carboxamide] |
